Patent US9758485B2, “Compounds for controlling arthropods” (priority 2013, dated 2017)

Key:
Rhipicephalus sanguineus = Rhipicephalus sanguineus - in vitro contact tests with adult brown dog ticks; type: in vivo
Outline: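 Test compound was dissolved in acetone p.a. (9 mg in 1 ml, then diluted), and 250 μl were spread evenly over the inner surface of 25 ml test tubes on an orbital shaker at 30 rpm for 2 h. Once the solvent evaporated, 5-10 adult Rhipicephalus sanguineus ticks were sealed in, kept dark at room temperature, and after 48 h placed on a 45-50° C. hotplate to score dead or moribund ticks.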

[1] = test system: Boophilus microplus Parkhurst strain, SP-resistant; test: Boophilus microplus - dip test; type: in vivo; conditions: application rate 100 ppm; dip of engorged adult female ticks; laying of fertile eggs, after 7 days
Outline: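 Efficacy reflects suppression of fertile egg laying: 0% means all eggs fertile, 100% none, read at 7 days, doubtful eggs kept ~42 days for larval hatch. Treatment was a complete dip of 8–10 engorged adult female ticks (SP-resistant Parkhurst strain) in a water dilution of a DMSO stock.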

[2] = logP determination by HPLC on a reversed-phase column (C18), EEC Directive 79/831 Annex V.A8; type: physicochemical; conditions: for logP^a): HPLC-MS method a), Table I-T3; for log P: HPLC-MS, reversed-phase column (C18)
Amblyomma hebraeum = Amblyomma hebraeum test (tick nymphs, immersion); type: in vivo; conditions: application rate 100 ppm; tick nymphs immersed for one minute; kill after 42 days
Method: Solvent: dimethyl sulphoxide
To produce an appropriate active ingredient formulation, 10 mg of active ingredient are mixed with 0.5 ml of dimethyl sulphoxide, and the concentrate is diluted with water to the desired concentration.
Tick nymphs (Amblyomma hebraeum) are placed into perforated plastic beakers and immersed in the desired concentration for one minute. The ticks are transferred on filter paper into a Petri dish and stored in a climate-controlled cabinet.
After 42 days, the kill in % is determined. 100% means that all of the ticks have been killed; 0% means that none of the ticks have been killed.

Lucilia cuprina = Lucilia cuprina test; type: in vivo; conditions: application rate 100 ppm; L1 larvae in minced horsemeat; kill after 2 days
Outline: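 Mortality (%) of first-instar blowfly larvae, about 20 per vessel, recorded 2 days after exposure to compound-treated minced horsemeat. Compound dissolved in dimethyl sulphoxide, then water-diluted to the desired concentration.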

Boophilus microplus = Boophilus microplus - injection test; type: in vivo; conditions: application rate 20 μg/animal; injected into engorged adult female ticks; laying of fertile eggs, after 7 days
Outline: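 Steps: dilute compound in DMSO to the desired concentration; inject 1 μl abdominally into 5 engorged adult females; keep in climate-controlled dishes; at 7 days score fertile egg laying, incubating doubtful eggs until hatch at about 42 days.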

Ctenocephalides felis [3] = test: Ctenocephalides felis - oral test; type: in vivo; conditions: application rate 100 ppm in citrated cattle blood; adult fleas; kill after 2 days
Outline: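 DMSO stock, diluted in citrated cattle blood; ~20 unfed adult fleas feed through parafilm; % kill read at day 2 (0% = none killed).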

Ctenocephalides felis [4] = test: Ctenocephalides felis - in vitro contact tests with adult cat fleas; type: in vivo; conditions: application rate 5 μg/cm^2 (=500 g/ha), after 48 h (dead or moribund)
Outline: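 Efficacy, as share of dead or moribund adult Ctenocephalides felis, read 48 h after placing 5-10 fleas in tubes coated by acetone solution (5 μg/cm^2 at 900 ppm). Incubation horizontal at room temperature, ambient humidity; immobile or uncoordinated fleas scored.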

Musca domestica = Musca domestica test; type: in vivo; conditions: application rate 100 ppm; adult houseflies; kill after 2 days
Outline: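 10 adult flies per vessel; sugar-solution sponge dosed with active ingredient formulation (DMSO concentrate diluted in water to desired concentration). Read-out: % kill at 2 days.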

[5] = application rate 5 μg/cm^2, after 48 h (dead or moribund)
[6] = application rate 1 μg/cm^2, after 48 h (dead or moribund)

Row | SMILES | efficacy (Rhipicephalus sanguineus; [5]) | efficacy [1] | logP^a) [2] | efficacy (Amblyomma hebraeum) | efficacy (Lucilia cuprina) | efficacy (Boophilus microplus) | efficacy (Ctenocephalides felis [3]) | efficacy (Ctenocephalides felis [4]) | efficacy (Musca domestica) | efficacy (Rhipicephalus sanguineus; application rate 0.2 μg/cm^2, after 48 h (dead or moribund)) | log P [2] | efficacy (Rhipicephalus sanguineus; [6])
1 | Cc1cc(C(F)(C(F)(F)F)C(F)(F)F)cc(C(F)(F)F)c1-n1cc(-c2ccc(Cl)c(C(=O)NC3(C#N)CC3)c2)cn1 [I-T3-55] | 100% | 100% | 4.3 | 100% | 100% | 100% | 100% | 100% | 100% |  |  | 
2 | O=C(NC1CC1)c1cc(-c2cnn(-c3c(Cl)cc(C(F)(C(F)(F)F)C(F)(F)F)cc3C(F)(F)F)c2)ccc1Cl [I-T3-56] | 100% | 100% | 4.4 | 100% | 100% | 100% | 100% | 100% | 100% |  |  | 
3 | O=C(NC1CC1)c1cc(-c2cnn(-c3c(F)cc(C(F)(C(F)(F)F)C(F)(F)F)cc3F)c2)ccc1Cl [I-T3-61] | 100% | 100% | 4.0 | 80% | 100% | 100% | 100% | 100% | 100% |  |  | 
4 | Cc1cc(C(F)(C(F)(F)F)C(F)(F)F)cc(Cl)c1-n1cc(-c2ccc(Cl)c(C(=O)NC3CC3)c2)cn1 [I-T3-63] | 100% | 100% | 4.4 | 100% | 100% | 100% | 100% | 100% | 100% |  |  | 
5 | Cc1cc(C(F)(C(F)(F)F)C(F)(F)F)cc(Cl)c1-n1cc(-c2ccc(Cl)c(C(=O)NC3(C#N)CC3)c2)cn1 [I-T3-64] |  | 100% | 4.2 | 100% | 100% | 100% | 100% | 100% | 100% | 80% |  | 
6 | CCc1cc(C(F)(C(F)(F)F)C(F)(F)F)cc(Cl)c1-n1cc(-c2ccc(Cl)c(C(=O)NC3(C#N)CC3)c2)cn1 [I-T3-71] | 100% | 100% | 4.5 | 100% | 100% | 100% | 100% | 100% | 100% |  |  | 
7 | CCc1cc(C(F)(C(F)(F)F)C(F)(F)F)cc(Cl)c1-n1cc(-c2ccc(Cl)c(C(=O)NC3CC3)c2)cn1 [I-T3-72] | 100% | 100% | 4.6 | 100% | 100% | 100% | 100% | 100% | 100% |  |  | 
8 | CCc1cc(C(F)(F)C(F)(F)F)cc(C)c1-n1cc(-c2ccc(Cl)c(C(=O)NC3CC3)c2)cn1 [I-T3-81] | 100% | 100% | 4.3 | 100% | 100% | 100% | 100% | 100% | 90% |  |  | 
9 | Cc1ncc(-c2cnn(-c3c(Cl)cc(C(F)(C(F)(F)F)C(F)(F)F)cc3Cl)c2)cc1C(=O)NC1CC1 [I-T3-91] | 100% | 100% |  | 100% | 100% | 100% | 100% | 100% | 100% |  | 3.3 | 
10 | Cc1ncc(-c2cnn(-c3c(Cl)cc(C(F)(C(F)(F)F)C(F)(F)F)cc3Cl)c2)cc1C(=O)NC1(C#N)CC1 [I-T3-92] | 80% | 100% |  | 100% | 100% | 100% | 100% | 100% | 100% |  | 3.4 | 
11 | Cc1cc(C(F)(C(F)(F)F)C(F)(F)F)cc(C)c1-n1cc(-c2cnc(C)c(C(=O)NC3CC3)c2)cn1 [I-T3-96] | 100% | 100% |  | 100% | 100% | 100% | 100% | 100% | 100% |  | 3.3 | 
12 | Cc1cc(C(F)(C(F)(F)F)C(F)(F)F)cc(C)c1-n1cc(-c2cnc(C)c(C(=O)NC3(C#N)CC3)c2)cn1 [I-T3-97] | 100% | 100% |  | 100% | 100% | 100% | 100% | 100% | 100% |  | 3.4 | 
13 | O=C(NC1CC1)c1cc(-c2cnn(-c3c(Cl)cc(C(F)(F)F)cc3Cl)c2)cnc1Cl [I-T3-98] | 100% | 100% |  | 100% | 100% | 100% | 100% | 100% | 90% |  | 3.1 | 
14 | Cc1cc(C(F)(C(F)(F)F)C(F)(F)F)cc(C(F)(F)F)c1-n1cc(-c2cnc(Cl)c(C(=O)NC3CC3)c2)cn1 [I-T3-106] | 100% | 100% |  | 100% | 100% | 100% | 100% | 100% | 100% |  | 4.0 | 
15 | Cc1cc(C(F)(C(F)(F)F)C(F)(F)F)cc(C(F)(F)F)c1-n1cc(-c2cnc(Cl)c(C(=O)NC3(C#N)CC3)c2)cn1 [I-T3-108] |  | 100% |  | 100% | 100% | 100% | 100% | 100% | 100% |  | 4.0 | 100%
16 | CCc1cc(C(F)(C(F)(F)F)C(F)(F)F)cc(C)c1-n1cc(-c2cnc(Cl)c(C(=O)NC3CC3)c2)cn1 [I-T3-109] | 100% | 100% |  | 100% | 100% | 100% | 100% | 100% | 100% |  | 4.2 | 
17 | CCc1cc(C(F)(C(F)(F)F)C(F)(F)F)cc(C)c1-n1cc(-c2cnc(Cl)c(C(=O)NC3(C#N)CC3)c2)cn1 [I-T3-110] | 100% | 100% |  | 100% | 100% | 100% | 100% | 100% | 100% |  | 4.1 | 
18 | O=C(NC1CC1)c1cc(-c2cnn(-c3c(Cl)cc(C(F)(C(F)(F)F)C(F)(F)F)cc3C(F)(F)F)c2)cnc1Cl [I-T3-112] | 100% | 100% |  | 100% | 100% | 100% | 100% | 100% | 100% |  | 4.0 | 
19 | N#CC1(NC(=O)c2cc(-c3cnn(-c4c(Cl)cc(C(F)(C(F)(F)F)C(F)(F)F)cc4C(F)(F)F)c3)cnc2Cl)CC1 [I-T3-114] |  | 100% |  | 100% | 100% | 100% | 100% | 100% | 100% |  | 4.0 | 100%
20 | Cc1cc(C(F)(C(F)(F)F)C(F)(F)F)cc(C(F)(F)F)c1-n1cc(-c2cnc(C)c(C(=O)NC3CC3)c2)cn1 [I-T3-117] | 100% | 100% |  | 100% | 100% | 100% | 100% | 100% | 100% |  | 3.5 | 
